In patent US11111270B2, “Inhibitor of apoptosis protein (IAP) antagonists” (Sanford Burnham Prebys Medical Discovery Institute, priority 2012, dated 2021):

Legend:
XIAP BIR1/2 = XIAP BIR1/2 (Homo sapiens, UniProt P98170); assay: XIAP BIR1/2 Ki; assay type: binding
XIAP BIR3 = XIAP BIR3 (Homo sapiens (Human), UniProt P98170); assay: XIAP BIR3 Ki; assay type: binding
ML-IAP = ML-IAP (Homo sapiens (Human), UniProt Q96CA5); assay: ML-IAP Ki; assay type: binding
PPC-1 cells [1] = assay: PPC-1 cell survival with TNFα; assay type: cell-based
Procedure: 5000 PPC-1 cells were plated and grown overnight. […] Plates were return to the incubator for 24 hrs. Plates were removed from the incubator and placed on the bench for 30 min and then 25 uL of Cell Titer Glo were added per well. Plates were placed on a rocker and then read on a luminometer. 5000 MDA-MB-231 cells were plated per well. Compound was added and 4 hrs later, TRAIL was added at 5 ng/mL; RPMI was added for a minus TRAIL control. Plates were incubated an additional 24 hrs, removed to the bench for 30 min, and then 25 uL of cell titer glo was added per well. Plates were placed on a rocker and read on a luminometer. Data were fit using PRISM.

PPC-1 cells [2] = assay: PPC-1 cell survival with TRAIL (Cell Titer Glo); assay type: cell-based
Procedure: (§1) 5000 PPC-1 cells were plated and grown overnight. Compounds were plated and 4 hrs later, TRAIL was added to half of the plate while RPMI was added to the other half of the plate as a control. Plates were return to the incubator for 24 hrs. Plates were removed from the incubator and placed on the bench for 30 min and then 25 uL of Cell Titer Glo were added per well. Plates were placed on a rocker and then read on a luminometer. 5000 MDA-MB-231 cells were plated per well. Compound was added and 4 hrs later, TRAIL was added at 5 ng/mL; RPMI was added for a minus TRAIL control. Plates were incubated an additional 24 hrs, removed to the bench for 30 min, and then 25 uL of cell titer glo was added per well. Plates were placed on a rocker and read on a luminometer. Data were fit using PRISM.

MDA-MB-231 cells = assay: MDA-MB-231 cell survival (Cell Titer Glo); assay type: cell-based
Procedure: as §1

ML-IAP, sequence (Q96CA5 whole entry, species assumed): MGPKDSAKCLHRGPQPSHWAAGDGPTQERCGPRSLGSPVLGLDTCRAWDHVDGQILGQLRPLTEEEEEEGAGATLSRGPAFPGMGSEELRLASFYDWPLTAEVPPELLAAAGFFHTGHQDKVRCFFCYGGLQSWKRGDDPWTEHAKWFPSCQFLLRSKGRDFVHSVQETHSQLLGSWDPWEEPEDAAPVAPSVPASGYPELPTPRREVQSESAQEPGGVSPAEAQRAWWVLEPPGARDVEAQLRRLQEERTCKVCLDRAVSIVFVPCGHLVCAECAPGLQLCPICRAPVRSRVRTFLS
XIAP BIR3, sequence (P98170 241-356): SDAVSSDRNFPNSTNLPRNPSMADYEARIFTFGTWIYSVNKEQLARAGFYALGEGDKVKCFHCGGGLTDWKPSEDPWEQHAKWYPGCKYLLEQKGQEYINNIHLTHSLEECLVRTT
XIAP BIR1/2, sequence (P98170 whole entry, looked up): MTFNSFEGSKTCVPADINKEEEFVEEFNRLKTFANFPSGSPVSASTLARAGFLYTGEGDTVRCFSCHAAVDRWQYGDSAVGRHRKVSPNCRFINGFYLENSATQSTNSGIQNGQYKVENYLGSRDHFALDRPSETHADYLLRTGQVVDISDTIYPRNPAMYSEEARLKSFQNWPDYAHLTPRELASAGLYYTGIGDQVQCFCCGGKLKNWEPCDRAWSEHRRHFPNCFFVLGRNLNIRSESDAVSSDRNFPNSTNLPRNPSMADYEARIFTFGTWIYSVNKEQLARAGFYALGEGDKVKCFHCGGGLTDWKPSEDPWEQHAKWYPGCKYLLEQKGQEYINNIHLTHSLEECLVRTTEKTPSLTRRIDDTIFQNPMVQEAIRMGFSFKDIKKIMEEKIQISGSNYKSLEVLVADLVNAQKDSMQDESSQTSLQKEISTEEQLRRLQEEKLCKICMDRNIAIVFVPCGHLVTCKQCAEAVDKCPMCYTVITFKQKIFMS

Ki (XIAP BIR3; Table B-1) | SMILES | Ki (XIAP BIR1/2; Table B-1) | Ki (ML-IAP; Table B-1) | also measured
 | CN[C@@H](C)C(=O)N[C@H]1CO[C@H]2CCC(C(=O)Nc3ccc(OC)cc3)N2C1=O (stereo partly shown) [Product 3] | > 50 µM |  | 
 | CN[C@@H](C)C(=O)N[C@H]1CO[C@H]2CCC(C(=O)NCc3ccccc3)N2C1=O (stereo partly shown) [Product 5] | > 50 µM |  | 
 | CN[C@@H](C)C(=O)N[C@H]1CO[C@H]2CCC(C(=O)Nc3ccc(Cl)cc3)N2C1=O (stereo partly shown) [Product 8] | > 50 µM |  | 
< 25 µM | CN[C@@H](C)C(=O)N[C@H]1CO[C@H]2CCC(C(=O)NC3CCCc4ccccc43)N2C1=O (stereo partly shown) [Product 9] | > 50 µM |  | 
< 25 µM | CN[C@@H](C)C(=O)N[C@@H]1C(=O)N2C(C(=O)NC3CCCc4ccccc43)CC[C@@H]2O[C@@H]1C (stereo partly shown) [Product 10] | > 50 µM | < 25 µM | 
 | CN[C@@H](C)C(=O)N[C@@H]1C(=O)N2C(C(=O)Nc3cccc4ccccc34)CC[C@@H]2O[C@@H]1C (stereo partly shown) [Product 11] | > 50 µM |  | 
< 25 µM | CN[C@@H](C)C(=O)NC1CCO[C@H]2CCC(C(=O)Nc3cccc4ccccc34)N2C1=O (stereo partly shown) [Product 13] | < 25 µM |  | 
< 25 µM | CN[C@@H](C)C(=O)N[C@H]1CCO[C@H]2CCC(C(=O)NC(c3ccccc3)c3ccccc3)N2C1=O (stereo partly shown) [Product 14] | > 50 µM | < 25 µM | 
 | CN[C@@H](C)C(=O)N[C@@H]1C(=O)N2C(C(=O)NC(c3ccccc3)c3ccccc3)CC[C@@H]2O[C@@H]1C (stereo partly shown) [Product 15] | > 50 µM |  | 
< 25 µM | CN[C@@H](C)C(=O)N[C@H]1CCCNC2CCC(C(=O)Nc3cccc4ccccc34)N2C1=O (stereo partly shown) [Product 17] | < 25 µM |  | 
 | CN[C@@H](C)C(=O)N[C@H]1CCO[C@H]2c3ccccc3C(C(=O)N[C@@H]3CCCc4ccccc43)N2C1=O (stereo partly shown) [Product 17a] |  |  | Ki (XIAP BIR1/2; Table 2-2): > 50 µM; Ki (ML-IAP; Table 2-2): < 25 µM; Ki (XIAP BIR3; Table 2-2): < 25 µM
 | CN[C@@H](C)C(=O)N[C@H]1CCO[C@H]2CC(C)(C)C(C(=O)N[C@@H]3CCCc4ccccc43)N2C1=O (stereo partly shown) [Product 17b] |  |  | Ki (XIAP BIR1/2; Table 2-2): < 25 µM; Ki (ML-IAP; Table 2-2): < 25 µM; Ki (XIAP BIR3; Table 2-2): < 25 µM
 | CN[C@@H](C)C(=O)N[C@H]1CCS[C@H]2CC(C)(C)C(C(=O)N[C@@H]3CCCc4ccccc43)N2C1=O (stereo partly shown) [Product 17c] |  |  | Ki (XIAP BIR1/2; Table 2-2): < 25 µM; Ki (ML-IAP; Table 2-2): < 25 µM; Ki (XIAP BIR3; Table 2-2): < 25 µM
 | CC(=O)N(C)[C@@H](C)C(=O)N[C@H]1CCCN(C(C)=O)[C@H]2CCC(C(=O)Nc3cccc4ccccc34)N2C1=O (stereo partly shown) [Product 18] | > 50 µM |  | 
< 25 µM | CN[C@@H](C)C(=O)N[C@H]1CCCN(C(C)=O)C2CCC(C(=O)N[C@@H]3CCCc4ccccc43)N2C1=O (stereo partly shown) [Product 20] | > 50 µM |  | 
25 to 50 µM | CN[C@@H](C)C(=O)NC1CCO[C@H]2CC[C@H](C(=O)n3ccc4ccccc43)N2C1=O (stereo partly shown) [Product 22] | > 50 µM |  | 
25 to 50 µM | CN[C@@H](C)C(=O)NC1CCO[C@H]2CC[C@@H](C(=O)n3ccc4ccccc43)N2C1=O (stereo partly shown) [Product 23] | > 50 µM |  | 
< 25 µM | CN[C@@H](C)C(=O)N[C@H]1CCO[C@H]2CC[C@@H](C(=O)Nc3cccc4ccccc34)N2C1=O [Product 25] | < 25 µM |  | 
 | CN[C@@H](C)C(=O)N[C@H]1CCN[C@H]2CCC(C(=O)N[C@@H]3CCCc4ccccc43)N2C1=O (stereo partly shown) [Product 28] | > 50 µM |  | 
25 to 50 µM | CN[C@@H](C)C(=O)N[C@H]1Cc2c([nH]c3ccccc23)[C@H]2CCC(C(=O)N[C@@H]3CCCc4ccccc43)N2C1=O (stereo partly shown) [Product 30] | > 50 µM |  | 
< 25 µM | CN[C@@H](C)C(=O)N[C@H]1Cc2c([nH]c3ccccc23)[C@H]2CCC(C(=O)N[C@@H]3CCCc4ccccc43)N2C1=O (stereo partly shown) [Product 31] | < 25 µM |  | 
 | CN[C@@H](C)C(=O)N[C@H]1CCS(=O)(=O)[C@H]2CC[C@H](C(=O)N[C@@H]3CCCc4ccccc43)N2C1=O [Product 38] | > 50 µM |  | 
 | CN[C@@H](C)C(=O)N[C@H]1CCO[C@H]2CC[C@H](C(=O)N[C@@H]3CCOc4ccccc43)N2C1=O [Product 39] | > 50 µM |  | 
< 25 µM | CN[C@@H](C)C(=O)N[C@H]1CCO[C@H]2CC(C)(C)C(C(=O)Nc3ccccc3SSc3ccccc3NC(=O)C3N4C(=O)[C@@H](NC(=O)[C@H](C)NC)CCO[C@H]4CC3(C)C)N2C1=O (stereo partly shown) [Product 40] | < 25 µM |  | 
< 25 µM | CN[C@@H](C)C(=O)N[C@H]1CCS[C@H]2CCCC(C(=O)N[C@@H]3CCCc4ccccc43)N2C1=O (stereo partly shown) [Product 41] | < 25 µM |  | 
< 25 µM | CN[C@@H](C)C(=O)N[C@H]1CCO[C@H]2CC3(CC=CC3)C(C(=O)N[C@@H]3CCCc4ccccc43)N2C1=O (stereo partly shown) [Product 42] | < 25 µM | < 25 µM | 
< 25 µM | CN[C@@H](C)C(=O)N[C@H]1CCO[C@H]2CC3(CCCC3)C(C(=O)N[C@@H]3CCCc4ccccc43)N2C1=O (stereo partly shown) [Product 43] | < 25 µM |  | 
< 25 µM | CN[C@@H](C)C(=O)N[C@H]1Cc2ccc(O)cc2[C@H]2CC(C)(C)C(C(=O)N[C@@H]3CCCc4ccccc43)N2C1=O (stereo partly shown) [Product 45] | < 25 µM |  | 
< 25 µM | CN[C@@H](C)C(=O)N[C@H]1CC(=O)N[C@H]2CC(C)(C)C(C(=O)N[C@@H]3CCCc4ccccc43)N2C1=O (stereo partly shown) [Product 46] | > 50 µM | < 25 µM | 

SMILES | Ki (XIAP BIR3; Table B-1) | Ki (XIAP BIR1/2; Table B-1) | Ki (ML-IAP; Table B-1) | also measured
CNC(C)C(=O)N[C@H]1CO[C@H]2CCC(C(=O)Nc3ccc(OC)cc3)N2C1=O (stereo partly shown) [Product 4] | 25 to 50 µM | > 50 µM |  | 
CN[C@@H](C)C(=O)N[C@H]1CCO[C@H]2CCC(C(=O)N[C@@H]3CCCc4ccccc43)N2C1=O (stereo partly shown) [Product 12] | < 25 µM | > 50 µM | < 25 µM | PPC-1 (TNFα) LD50 (PPC-1 cells [1]): A (A = ≤ 25 micromolar); PPC-1 (TRAIL) LD50 (PPC-1 cells [2]): A (A = ≤ 25 micromolar); MDA-MB-231 LD50 (MDA-MB-231 cells): A (A = ≤ 25 micromolar)
CN[C@@H](C)C(=O)N[C@H]1CCCNC2CCC(C(=O)N[C@@H]3CCCc4ccccc43)N2C1=O (stereo partly shown) [Product 16] | < 25 µM |  |  | 
CN[C@@H](C)C(=O)N[C@H]1CCS[C@H]2CCC(C(=O)N[C@@H]3CCCc4ccccc43)N2C1=O (stereo partly shown) [Product 24] | < 25 µM | > 50 µM | < 25 µM | PPC-1 (TNFα) LD50 (PPC-1 cells [1]): A (A = ≤ 25 micromolar); PPC-1 (TRAIL) LD50 (PPC-1 cells [2]): A (A = ≤ 25 micromolar); MDA-MB-231 LD50 (MDA-MB-231 cells): A (A = ≤ 25 micromolar)
CN[C@@H](C)C(=O)N[C@H]1CCO[C@H]2CC(C)(C)[C@@H](C(=O)N[C@@H]3CCCc4ccccc43)N2C1=O [Product 26] | < 25 µM | < 25 µM | < 25 µM | PPC-1 (TNFα) LD50 (PPC-1 cells [1]): A (A = ≤ 25 micromolar); PPC-1 (TRAIL) LD50 (PPC-1 cells [2]): A (A = ≤ 25 micromolar); MDA-MB-231 LD50 (MDA-MB-231 cells): A (A = ≤ 25 micromolar)
CN[C@@H](C)C(=O)N[C@H]1CCO[C@H]2c3ccccc3C(C(=O)N[C@@H]3CCCc4ccccc43)N2C1=O (stereo partly shown) [Product 27] | < 25 µM | > 50 µM | < 25 µM | PPC-1 (TNFα) LD50 (PPC-1 cells [1]): A (A = ≤ 25 micromolar); PPC-1 (TRAIL) LD50 (PPC-1 cells [2]): A (A = ≤ 25 micromolar)
CN[C@@H](C)C(=O)N[C@H]1CCN[C@H]2CCC(C(=O)N[C@@H]3CCCc4ccccc43)N2C1=O (stereo partly shown) [Product 29] | > 50 µM |  |  | 
CN[C@@H](C)C(=O)N[C@H]1CCO[C@H]2CC[C@@H](C(=O)N[C@@H]3CCOc4ccccc43)N2C1=O [Product 32] | < 25 µM | > 50 µM | < 25 µM | PPC-1 (TNFα) LD50 (PPC-1 cells [1]): A (A = ≤ 25 micromolar); PPC-1 (TRAIL) LD50 (PPC-1 cells [2]): A (A = ≤ 25 micromolar); MDA-MB-231 LD50 (MDA-MB-231 cells): A (A = ≤ 25 micromolar)
CN[C@@H](C)C(=O)N[C@H]1CCO[C@H]2CC[C@@H](C(=O)N[C@@H]3CCCc4ccccc43)N2C1=O [Product 33] | < 25 µM | > 50 µM | < 25 µM | PPC-1 (TNFα) LD50 (PPC-1 cells [1]): A (A = ≤ 25 micromolar); PPC-1 (TRAIL) LD50 (PPC-1 cells [2]): A (A = ≤ 25 micromolar)
CN[C@@H](C)C(=O)N[C@H]1CCS[C@H]2CC[C@@H](C(=O)N[C@@H]3CCCc4ccccc43)N2C1=O [Product 34] | < 25 µM | > 50 µM | < 25 µM | PPC-1 (TNFα) LD50 (PPC-1 cells [1]): A (A = ≤ 25 micromolar); PPC-1 (TRAIL) LD50 (PPC-1 cells [2]): A (A = ≤ 25 micromolar)
CN[C@@H](C)C(=O)N[C@H]1CCS[C@H]2CC(C)(C)C(C(=O)N[C@@H]3CCCc4ccccc43)N2C1=O (stereo partly shown) [Product 35] | < 25 µM | < 25 µM | < 25 µM | PPC-1 (TNFα) LD50 (PPC-1 cells [1]): A (A = ≤ 25 micromolar); PPC-1 (TRAIL) LD50 (PPC-1 cells [2]): A (A = ≤ 25 micromolar)
CN[C@@H](C)C(=O)N[C@H]1CCS[C@H]2CC[C@H](C(=O)N[C@@H]3CCCc4ccccc43)N2C1=O [Product 36] | < 25 µM | > 50 µM | < 25 µM | 
CN[C@@H](C)C(=O)N[C@H]1CCS(=O)(=O)[C@H]2CC[C@@H](C(=O)N[C@@H]3CCCc4ccccc43)N2C1=O [Product 37] | < 25 µM | > 50 µM |  | 
